In patent US11945822B2, “Pyrazolo-triazine and/or pyrazolo-pxrimidine derivatives as selective inhibitor of cyclin dependent kinase” (QURIENT CO., LTD., priority 2018, dated 2024):
pIC50: −log10 of the molar value.

The compounds below were run against T1, CDK2/Cyclin A (Homo sapiens, UniProt P24941) (assay: Enzymatic assay for CDK2 (FRET based LANCE Ultra kinase assay)). Conditions: read-out: CDK2 enzymatic activity (IC50 range).
T1 construct: purchased Invitrogen PV6290
Type: biochemical
In short: (§1)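 TR-FRET (LANCE Ultra) kinase assay at ATP Km, ULight-MBP peptide substrate (68 nM), 8-dose 4-fold compound series in DMSO. Enzymes: […]; 60 min at 23° C., stopped with EDTA plus Eu-anti-phospho-MBP antibody, read 665/615 nm after 60 min.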

Row | pIC50 | Structure (SMILES)
1 | 6.00 to 7.00 | CC(C)c1cnn2c(NCc3ccccc3-c3cc4ccccc4cn3)nc(N3CCC(N)CC3)nc12 [Compound 78]
2 | 6.00 to 7.00 | CC(C)c1cnn2c(NCc3ccccc3-n3cc4cc(Cl)ccc4n3)nc(N3CCC(N)CC3)nc12 [Compound 103]
3 | 6.00 to 7.00 | CC(C)Oc1ccc2cn(-c3ccccc3CNc3nc(N4CCC(N)CC4)nc4c(C(C)C)cnn34)nc2c1 [Compound 107]
4 | > 7.00 | CC(C)c1cnn2c(NCc3ccccc3-c3cn4ccccc4n3)nc(N3CCC(N)CC3)nc12 [Compound 110]

These compounds were tested on MV4-11 (assay: Cellular MV4-11 viability assay (CellTiter-Glo, 72 hours)). Conditions: Homo sapiens.
Type: cell-based
In short: (§2)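 CellTiter-Glo luminescence read in duplicate after 72 h compound exposure (37 °C, 5% CO2); DMSO-only control, final DMSO under 0.1%.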

Row | pIC50 | Structure (SMILES)
5 | > 6.00 | CC(C)c1cnn2c(NCc3ccccc3-c3cc4ccccc4cn3)nc(N3CCC(N)CC3)nc12 [Compound 78]
6 | > 6.00 | CC(C)c1cnn2c(NCc3ccccc3-n3cc4cc(Cl)ccc4n3)nc(N3CCC(N)CC3)nc12 [Compound 103]
7 | > 6.00 | CC(C)Oc1ccc2cn(-c3ccccc3CNc3nc(N4CCC(N)CC4)nc4c(C(C)C)cnn34)nc2c1 [Compound 107]
8 | > 6.00 | CC(C)c1cnn2c(NCc3ccccc3-c3cn4ccccc4n3)nc(N3CCC(N)CC3)nc12 [Compound 110]

The compounds below were run on RPMI-8226 (assay: Cellular RPMI-8226 viability assay (CellTiter-Glo, 72 hours)). Conditions: Homo sapiens.
Type: cell-based
In short: as §2

Row | pIC50 | Structure (SMILES)
9 | > 6.00 | CC(C)c1cnn2c(NCc3ccccc3-c3cc4ccccc4cn3)nc(N3CCC(N)CC3)nc12 [Compound 78]
10 | > 6.00 | CC(C)c1cnn2c(NCc3ccccc3-n3cc4cc(Cl)ccc4n3)nc(N3CCC(N)CC3)nc12 [Compound 103]
11 | > 6.00 | CC(C)Oc1ccc2cn(-c3ccccc3CNc3nc(N4CCC(N)CC4)nc4c(C(C)C)cnn34)nc2c1 [Compound 107]
12 | > 6.00 | CC(C)c1cnn2c(NCc3ccccc3-c3cn4ccccc4n3)nc(N3CCC(N)CC3)nc12 [Compound 110]

The compounds below were run on MOLT-4 (assay: Cellular MOLT-4 viability assay (CellTiter-Glo, 72 hours)). Conditions: Homo sapiens, MOLT4 viability assay.
Type: cell-based
In short: as §2

Row | pIC50 | Structure (SMILES)
13 | 5.00 to 6.00 | CC(C)c1cnn2c(NCc3ccccc3-c3cc4ccccc4cn3)nc(N3CCC(N)CC3)nc12 [Compound 78]
14 | 5.00 to 6.00 | CC(C)c1cnn2c(NCc3ccccc3-n3cc4cc(Cl)ccc4n3)nc(N3CCC(N)CC3)nc12 [Compound 103]
15 | 5.00 to 6.00 | CC(C)Oc1ccc2cn(-c3ccccc3CNc3nc(N4CCC(N)CC4)nc4c(C(C)C)cnn34)nc2c1 [Compound 107]
16 | > 6.00 | CC(C)c1cnn2c(NCc3ccccc3-c3cn4ccccc4n3)nc(N3CCC(N)CC3)nc12 [Compound 110]

Each compound was assayed against T2, CDK1/Cyclin B (Homo sapiens, UniProt P06493) (assay: Enzymatic assay for CDK1 (FRET based LANCE Ultra kinase assay)). Conditions: read-out: CDK1 enzymatic activity (IC50 range).
T2 construct: purchased Invitrogen PR4768C
T2 sequence (P06493 whole entry): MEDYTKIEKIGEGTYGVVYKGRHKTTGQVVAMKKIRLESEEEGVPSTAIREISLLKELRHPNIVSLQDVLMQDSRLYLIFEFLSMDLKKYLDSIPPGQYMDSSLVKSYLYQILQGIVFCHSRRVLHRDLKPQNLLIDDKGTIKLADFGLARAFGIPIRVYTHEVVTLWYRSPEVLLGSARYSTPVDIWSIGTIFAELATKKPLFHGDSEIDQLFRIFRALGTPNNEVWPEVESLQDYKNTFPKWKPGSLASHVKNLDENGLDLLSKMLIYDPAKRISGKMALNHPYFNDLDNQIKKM
T2 sequence (P14635 whole entry partner): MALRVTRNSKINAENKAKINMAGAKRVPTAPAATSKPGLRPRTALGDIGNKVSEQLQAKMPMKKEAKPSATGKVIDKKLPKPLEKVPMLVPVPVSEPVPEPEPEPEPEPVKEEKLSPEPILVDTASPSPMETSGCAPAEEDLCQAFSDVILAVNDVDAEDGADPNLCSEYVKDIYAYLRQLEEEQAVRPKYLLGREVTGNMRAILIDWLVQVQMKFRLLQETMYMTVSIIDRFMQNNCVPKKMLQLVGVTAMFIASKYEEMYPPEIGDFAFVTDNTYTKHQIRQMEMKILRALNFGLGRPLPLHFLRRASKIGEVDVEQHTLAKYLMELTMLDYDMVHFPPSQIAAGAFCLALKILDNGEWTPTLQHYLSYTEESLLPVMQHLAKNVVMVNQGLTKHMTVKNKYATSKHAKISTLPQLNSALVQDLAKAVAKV
Type: biochemical
In short: as §1

Row | pIC50 | Structure (SMILES)
17 | 6.00 to 7.00 | CC(C)c1cnn2c(NCc3ccccc3-c3cc4ccccc4cn3)nc(N3CCC(N)CC3)nc12 [Compound 78]
18 | < 6.00 | CC(C)c1cnn2c(NCc3ccccc3-n3cc4cc(Cl)ccc4n3)nc(N3CCC(N)CC3)nc12 [Compound 103]
19 | < 6.00 | CC(C)Oc1ccc2cn(-c3ccccc3CNc3nc(N4CCC(N)CC4)nc4c(C(C)C)cnn34)nc2c1 [Compound 107]
20 | 6.00 to 7.00 | CC(C)c1cnn2c(NCc3ccccc3-c3cn4ccccc4n3)nc(N3CCC(N)CC3)nc12 [Compound 110]

What follows are compounds tested against T3, CDK5/p25 (Homo sapiens, UniProt Q00535) (assay: Enzymatic assay for CDK5 (FRET based LANCE Ultra kinase assay)). Conditions: read-out: CDK5 enzymatic activity (IC50 range).
T3 construct: purchased Invitrogen PR8543B
T3 sequence (Q00535 whole entry): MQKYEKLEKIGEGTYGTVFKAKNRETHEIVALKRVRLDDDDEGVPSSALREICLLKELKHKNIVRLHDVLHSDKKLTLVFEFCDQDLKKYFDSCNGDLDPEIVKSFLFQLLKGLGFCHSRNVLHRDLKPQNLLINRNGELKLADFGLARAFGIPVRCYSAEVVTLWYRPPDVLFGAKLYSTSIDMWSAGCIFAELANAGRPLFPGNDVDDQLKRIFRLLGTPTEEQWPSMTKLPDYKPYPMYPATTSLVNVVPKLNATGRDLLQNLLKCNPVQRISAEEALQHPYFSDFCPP
T3 sequence (Q15078 99-307 partner limits assumed): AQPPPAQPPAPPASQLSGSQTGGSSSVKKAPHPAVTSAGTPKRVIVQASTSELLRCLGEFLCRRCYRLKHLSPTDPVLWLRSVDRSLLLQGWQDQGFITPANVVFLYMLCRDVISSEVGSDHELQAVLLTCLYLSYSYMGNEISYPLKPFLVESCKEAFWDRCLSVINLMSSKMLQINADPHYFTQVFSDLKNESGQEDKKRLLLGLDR
Type: biochemical
In short: as §1

Row | pIC50 | Structure (SMILES)
21 | > 7.00 | CC(C)c1cnn2c(NCc3ccccc3-c3cc4ccccc4cn3)nc(N3CCC(N)CC3)nc12 [Compound 78]
22 | 6.00 to 7.00 | CC(C)c1cnn2c(NCc3ccccc3-n3cc4cc(Cl)ccc4n3)nc(N3CCC(N)CC3)nc12 [Compound 103]
23 | 6.00 to 7.00 | CC(C)Oc1ccc2cn(-c3ccccc3CNc3nc(N4CCC(N)CC4)nc4c(C(C)C)cnn34)nc2c1 [Compound 107]
24 | > 7.00 | CC(C)c1cnn2c(NCc3ccccc3-c3cn4ccccc4n3)nc(N3CCC(N)CC3)nc12 [Compound 110]

The compounds below were run on H460 (assay: Cellular H460 viability assay (CellTiter-Glo, 72 hours)). Conditions: Homo sapiens, NCI-H460.
Type: cell-based
In short: as §2

Row | pIC50 | Structure (SMILES)
25 | > 6.00 | CC(C)c1cnn2c(NCc3ccccc3-c3cc4ccccc4cn3)nc(N3CCC(N)CC3)nc12 [Compound 78]
26 | > 6.00 | CC(C)c1cnn2c(NCc3ccccc3-n3cc4cc(Cl)ccc4n3)nc(N3CCC(N)CC3)nc12 [Compound 103]
27 | > 6.00 | CC(C)Oc1ccc2cn(-c3ccccc3CNc3nc(N4CCC(N)CC4)nc4c(C(C)C)cnn34)nc2c1 [Compound 107]
28 | > 6.00 | CC(C)c1cnn2c(NCc3ccccc3-c3cn4ccccc4n3)nc(N3CCC(N)CC3)nc12 [Compound 110]

What follows are compounds tested against T4, CDK7/Cyclin H/MNAT1 (Homo sapiens, UniProt P50613) (assay: Enzymatic assay for CDK7 (FRET based LANCE Ultra kinase assay)). Conditions: CDK7 over CDK1.
T4 construct: purchased Invitrogen PR6749B
T4 sequence (P50613 whole entry): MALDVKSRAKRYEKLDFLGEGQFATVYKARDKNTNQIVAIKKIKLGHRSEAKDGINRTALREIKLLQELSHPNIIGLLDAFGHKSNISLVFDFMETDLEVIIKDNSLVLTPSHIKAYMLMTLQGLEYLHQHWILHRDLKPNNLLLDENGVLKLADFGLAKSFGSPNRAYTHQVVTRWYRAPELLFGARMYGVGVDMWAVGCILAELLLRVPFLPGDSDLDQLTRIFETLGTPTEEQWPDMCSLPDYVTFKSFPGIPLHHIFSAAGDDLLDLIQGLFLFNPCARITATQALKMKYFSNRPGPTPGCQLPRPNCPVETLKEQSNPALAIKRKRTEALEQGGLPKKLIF
T4 sequence (P51946 whole entry partner): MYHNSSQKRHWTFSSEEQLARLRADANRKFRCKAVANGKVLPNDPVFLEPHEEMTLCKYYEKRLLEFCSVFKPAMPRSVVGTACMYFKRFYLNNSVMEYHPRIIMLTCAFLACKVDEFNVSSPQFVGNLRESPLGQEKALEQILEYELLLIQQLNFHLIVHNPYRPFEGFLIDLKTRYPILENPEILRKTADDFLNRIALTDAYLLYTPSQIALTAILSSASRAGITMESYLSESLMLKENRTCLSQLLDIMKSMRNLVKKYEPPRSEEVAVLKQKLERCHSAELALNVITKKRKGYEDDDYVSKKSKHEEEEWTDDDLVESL
T4 sequence (P51948 whole entry partner): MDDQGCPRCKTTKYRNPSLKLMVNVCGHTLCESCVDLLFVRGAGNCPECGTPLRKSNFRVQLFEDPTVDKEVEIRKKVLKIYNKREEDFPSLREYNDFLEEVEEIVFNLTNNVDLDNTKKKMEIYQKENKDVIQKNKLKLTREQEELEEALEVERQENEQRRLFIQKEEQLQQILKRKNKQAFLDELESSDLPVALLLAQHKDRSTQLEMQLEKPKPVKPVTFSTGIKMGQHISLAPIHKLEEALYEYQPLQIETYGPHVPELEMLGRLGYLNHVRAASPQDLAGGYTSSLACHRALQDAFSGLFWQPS
Type: biochemical
In short: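 Inhibition was measured at Km ATP by time-resolved FRET between a Eu anti-phospho antibody and a phosphorylated ULight peptide. The enzyme was the purified CDK7/cyclin complex, and data were curve-fitted.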

Row | CDK1/CDK7: Selectivity of CDK7 inhibition over CDK1 inhibition | Structure (SMILES)
29 | A (A=greater than 200 fold) | CC(C)c1cnn2c(NCc3ccccc3-c3cc4ccccc4cn3)nc(N3CCC(N)CC3)nc12 [Compound 78]
30 | A (A=greater than 200 fold) | CC(C)c1cnn2c(NCc3ccccc3-n3cc4cc(Cl)ccc4n3)nc(N3CCC(N)CC3)nc12 [Compound 103]
31 | A (A=greater than 200 fold) | CC(C)Oc1ccc2cn(-c3ccccc3CNc3nc(N4CCC(N)CC4)nc4c(C(C)C)cnn34)nc2c1 [Compound 107]

Row | Structure (SMILES) | CDK1/CDK7: Selectivity of CDK7 inhibition over CDK1 inhibition
32 | CC(C)c1cnn2c(NCc3ccccc3-c3cn4ccccc4n3)nc(N3CCC(N)CC3)nc12 [Compound 110] | B (B=less than 200 fold, but greater than 20 fold)

Same assay, conditions: CDK7 over CDK2

Row | Structure (SMILES) | CDK2/CDK7: Selectivity of CDK7 inhibition over CDK2 inhibition
33 | CC(C)c1cnn2c(NCc3ccccc3-c3cc4ccccc4cn3)nc(N3CCC(N)CC3)nc12 [Compound 78] | B (B=less than 200 fold, but greater than 20 fold)
34 | CC(C)c1cnn2c(NCc3ccccc3-n3cc4cc(Cl)ccc4n3)nc(N3CCC(N)CC3)nc12 [Compound 103] | B (B=less than 200 fold, but greater than 20 fold)
35 | CC(C)Oc1ccc2cn(-c3ccccc3CNc3nc(N4CCC(N)CC4)nc4c(C(C)C)cnn34)nc2c1 [Compound 107] | A (A=greater than 200 fold)
36 | CC(C)c1cnn2c(NCc3ccccc3-c3cn4ccccc4n3)nc(N3CCC(N)CC3)nc12 [Compound 110] | B (B=less than 200 fold, but greater than 20 fold)

Same assay, conditions: CDK7 over CDK5

Row | Structure (SMILES) | CDK5/CDK7: Selectivity of CDK7 inhibition over CDK5 inhibition
37 | CC(C)c1cnn2c(NCc3ccccc3-c3cc4ccccc4cn3)nc(N3CCC(N)CC3)nc12 [Compound 78] | B (B=less than 200 fold, but greater than 20 fold)
38 | CC(C)c1cnn2c(NCc3ccccc3-n3cc4cc(Cl)ccc4n3)nc(N3CCC(N)CC3)nc12 [Compound 103] | B (B=less than 200 fold, but greater than 20 fold)
39 | CC(C)Oc1ccc2cn(-c3ccccc3CNc3nc(N4CCC(N)CC4)nc4c(C(C)C)cnn34)nc2c1 [Compound 107] | B (B=less than 200 fold, but greater than 20 fold)
40 | CC(C)c1cnn2c(NCc3ccccc3-c3cn4ccccc4n3)nc(N3CCC(N)CC3)nc12 [Compound 110] | C (C=less than 20 fold)

Same assay, conditions: read-out: CDK7 enzymatic activity (IC50 range)

Row | pIC50 | Structure (SMILES)
41 | > 7.00 | CC(C)c1cnn2c(NCc3ccccc3-c3cc4ccccc4cn3)nc(N3CCC(N)CC3)nc12 [Compound 78]
42 | > 7.00 | CC(C)c1cnn2c(NCc3ccccc3-n3cc4cc(Cl)ccc4n3)nc(N3CCC(N)CC3)nc12 [Compound 103]
43 | > 7.00 | CC(C)Oc1ccc2cn(-c3ccccc3CNc3nc(N4CCC(N)CC4)nc4c(C(C)C)cnn34)nc2c1 [Compound 107]
44 | > 7.00 | CC(C)c1cnn2c(NCc3ccccc3-c3cn4ccccc4n3)nc(N3CCC(N)CC3)nc12 [Compound 110]
